According to patent US12163953B2, “P-phenylene ethynylene compounds as bioactive and detection agents” (STC.UNM, priority 2014, dated 2024):

Legend:
HEWL amyloids [1] = molecular target: T1, HEWL amyloids (Gallus gallus, UniProt P00698); experiment: HEWL to PE Förster resonance energy transfer; format: binding, hen; settings: excitation 280 nm
T1 construct: Lyophilized HEWL was dissolved at 10 mg/mL in 10 mM pH 3 sodium citrate buffer with 0.1 M NaCl; purchased Sigma-Aldrich; host or cells: hen egg white; fibrillised in house (pH 3, 70 °C, stirred)
T1 sequence (P00698 19-147): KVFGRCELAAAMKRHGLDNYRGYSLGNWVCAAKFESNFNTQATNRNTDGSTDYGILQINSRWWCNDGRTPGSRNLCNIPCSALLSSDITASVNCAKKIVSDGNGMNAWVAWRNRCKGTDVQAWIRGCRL
Description: The results are summarized as FRET efficiencies in FIG. 20, illustrating HEWL ? PE FRET efficiencies calculated from spectral data by the equation E=FA/(FD+FA) where FD is the integrated area under the donor emission peak, and FA is the integrated area under the acceptor emission peak. This simple expression is valid for this case since the PEs are nonfluorescent when excited at the donor excitation wavelength, eliminating crosstalk. Thus, FA is the total number of energy transfer events, and (FA+FD) is the total number of excitation events. Theoretically, the efficiencies should be convertible into distances by
For studies of fluorescence enhancement vs. protein incubation time, dyes were mixed with protein sample in phosphate buffer (10 mM, pH 7.4) at equal monomer concentration of 10 μM in the wells of a standard 96-well plate. Emission spectra were obtained using top read with a SpectraMax M2e plate-reading spectrophotometer (Molecular Devices, Sunnyvale, CA). Experiments were performed in duplicate and errors are reported as standard deviation. For analysis of bound PE excitation and emission spectra and protein-PE energy transfer, PEs (500 nM) were mixed with protein sample (5 μM, monomer basis) in phosphate buffer and the solution transferred to a quartz, fluorometry cuvette. […]

[2] = Absorbance/fluorescence spectroscopy and fluorescence quantum yield (comparative method) of PEs and PE/substrate aggregates; format: physicochemical
HEWL amyloids [3] = molecular target: T1, HEWL amyloids; experiment: Excitation and emission spectra of PEs with HEWL amyloids; format: binding, hen; settings: PE 500 nM, HEWL amyloid 5 μM monomer basis
Method: Excitation and emission spectra of PEs in phosphate buffer alone, with monomeric HEWL and with HEWL amyloids (8 h incubated) are shown in FIGS. 18A-H, and relevant photophysical properties are summarized in Table 1. FIGS. 18A-H illustrate excitation (A, B, C, D) and emission (right; E, F, G. H) spectra of PEs (A, E: PE1+; B, F: PE1−; C, G: PE2+; D, H: PE3+) in phosphate buffer (PB, pH 7.4, 10 mM) alone (long dashed line) with HEWL monomers (short dashed line) and with HEWL amyloids (solid line); PE concentration: 500 nM, protein concentration: 5 μM monomer basis/0.25 mg/mL; emission and excitation wavelengths, respectively, were chosen as shown in Table 1 for each sample. A 10:1 molar ratio of protein to PE was used for these experiments. Absorbance spectra were taken, but background light scattering from insoluble amyloid aggregates made them difficult to interpret, so “fluorescence detected absorbance” in the form of excitation spectra was used instead. Normalized excitation and emission spectra, in which peak shifts and lineshape changes of spectra were somewhat easier to visualize, were used. […] PE1+ (FIG. 18E) had no change in wavelength or lineshape of emission spectrum, just a large increase in intensity when mixed with amyloids. The excitation spectra (FIGS. 18A, B, C, D) show a notable bathochromic shift for each PE in solution mixed with amyloid, of 23, 27, 35 and 29 nm for PE1+, PE2+, PE3+ and PE1−, respectively, observing only the low-energy band. The high-energy band, less relevant for imaging purposes, was also bathochromically shifted. […] PE1− had similar excitation spectrum (FIG. 18B) with monomer and amyloid, except for a large intensity difference.
Lyophilized HEWL was dissolved at 10 mg/mL in 10 mM pH 3 sodium citrate buffer with 0.1 M NaCl. The solution was incubated in a 70C oil bath and magnetically stirred at 250 rpm for 12 h, and aliquots were withdrawn at half-hour intervals. […] Half of each aliquot was immediately diluted into pH 7.4 phosphate buffer to prevent further influence of acidic conditions and stored at 4C.
For studies of fluorescence enhancement vs. protein incubation time, dyes were mixed with protein sample in phosphate buffer (10 mM, pH 7.4) at equal monomer concentration of 10 μM in the wells of a standard 96-well plate. Emission spectra were obtained using top read with a SpectraMax M2e plate-reading spectrophotometer (Molecular Devices, Sunnyvale, CA). Experiments were performed in duplicate and errors are reported as standard deviation. For analysis of bound PE excitation and emission spectra and protein-PE energy transfer, PEs (500 nM) were mixed with protein sample (5 μM, monomer basis) in phosphate buffer and the solution transferred to a quartz, fluorometry cuvette. Spectra were obtained on a PTI QuantaMaster 40 steady state spectrofluorometer (HORIBA Scientific, Edison, NJ).

[4] = in water; cited from earlier work

Row | SMILES | HEWL to PE FRET efficiency, relative (HEWL amyloids [1]) | centre of structured emission upon aggregation with substrate ([2]; +2C with DLPG, −1C with LaCh) [nm] | fluorescence quantum yield of aggregate with DLPG ([2]; […] PE with 16 uM DLPG) | fluorescence enhancement on aggregation with DLPG ([2]; at 440 nm) [times] | fluorescence quantum yield, PE alone ([2]; in water, corrected value of this study) | bathochromic shift of excitation spectrum, low-energy band, with amyloid (HEWL amyloids [3]) [nm] | blueshifting of the fluorescence maximum with amyloid (HEWL amyloids [3]) [nm] | λem (PB w/ HEWL) (HEWL amyloids [3]) [nm] | λex (PB w/HEWL), high-energy band (HEWL amyloids [3]) [nm] | λex (PB w/HEWL), low-energy band (HEWL amyloids [3]) [nm] | fluorescence quantum yield, previously reported value [4]
1 | CCOC(=O)c1ccc(C#Cc2cc(OCC[N+](C)(C)C)c(C#Cc3ccc(C#Cc4cc(OCC[N+](C)(C)C)c(C#Cc5ccc(C(=O)OCC)cc5)cc4OCC[N+](C)(C)C)cc3)cc2OCC[N+](C)(C)C)cc1 [PE2+] | highest efficiency | 450 | 0.63 | 39 | ≤ 0.016 | 27 | ~10 | 445 | 337 | 426 | 0.039
2 | CCOC(=O)c1ccc(C#Cc2cc(OCC[N+](C)(C)C)c(C#Cc3ccc(C#Cc4cc(OCC[N+](C)(C)C)c(C#Cc5ccc(C#Cc6cc(OCC[N+](C)(C)C)c(C#Cc7ccc(C(=O)OCC)cc7)cc6OCC[N+](C)(C)C)cc5)cc4OCC[N+](C)(C)C)cc3)cc2OCC[N+](C)(C)C)cc1 [PE3+] | – | – | – | – | – | 35 | ~10 | 453 | 335 | 434 | –
